From patent publication US20040002425A1, “Triketone derivatives and herbicides” (Idemitsu Kosan Co., Ltd., priority 1998, published 2004)

Tested on: Transplanted paddy rice plant
Experiment: Biological Test 1 (treatment on the 3rd day after transplantation): chemical injury to paddy rice
Format: in vivo
Design: scale not given here
Conditions: Treatment performed 3 days after transplantation
Description: (1) Preparation of Herbicide
Talc (57 parts by weight) and bentonite (40 parts by weight), both serving as carriers, and sodium alkylbenzenesulfate (3 parts by weight) serving as a surfactant were homogeneously ground and mixed to thereby obtain a carrier for water-dispersible powder.
Subsequently, to the water-dispersible powder (90 parts by weight), the triketone derivative (compound No. A-1) produced in Example I-1 (10 parts by weight) was added, and the resultant mixture was homogeneously ground and mixed to thereby obtain a herbicide.
(i) Biological Test 1 (Soaking in Water/Treatment on the 3rd Day After Transplantation)
A Wagner pot (1/2000 are) was filled with paddy soil, and seeds of barnyard grass were planted on the surface layer of the soil, and further, rice seedlings grown to the 2.5-leaf stage were transplanted.
Subsequently, water was poured in the pot to a height of 3 cm above the soil surface, and placed in a greenhouse where the temperature was maintained at 20-25° C., to thereby grow the plant under suitable conditions.
On the 3rd day after transplantation, the herbicide prepared in (1) above was applied to the plant in a predetermined amount. On the 30th day after treatment with the herbicide, weed-killing ratio, herbicidal effect, and extent of chemical injury to paddy rice were examined.
In Biological tests 1 and 2, herbicidal effect and extent of chemical injury were evaluated according to the below-described standards.
3) Chemical Injury to Paddy Rice
Chemical injury to paddy rice was evaluated according to the following criteria.

[1] = dose 100 g/ha, examined on the 30th day after treatment
[2] = dose 200 g/ha, examined on the 30th day after treatment

Structure (SMILES) | Chemical injury, Transplanted paddy rice plant [1] | Chemical injury, Transplanted paddy rice plant [2] | Chemical injury, Transplanted paddy rice plant (dose 100 g/ha) | Chemical injury, Transplanted paddy rice plant (dose 200 g/ha)
Cc1cc(C(=O)C2=C(O)CCCC2=O)c(C)c2c1S(=O)(=O)CC2C (stereo not shown) [Comparative Example I-3, reference compound] | 3 | 4 | – | –
CS(=O)(=O)C1=C(C(=O)c2ccc3c(c2Cl)CCCS3(=O)=O)C(=O)CCC1 [B-80] | – | – | 0 | 0
CO/N=C1\CCS(=O)(=O)c2c(C)cc(C(=O)C3=C(Cl)CCCC3=O)c(C)c21 [B-54] | – | – | 1 | 4
Cc1ccc(SC2=C(C(=O)c3ccc4c(c3Cl)CCS4(=O)=O)C(=O)CCC2)cc1 [B-14, 4-chloro-5-[3-(4-methylphenyl)thio-1-oxocyclohexan-2-yl]carbonyl-2,3-dihydrobenzothiophene-1,1-dioxide] | – | – | 0 | 0
Cc1cc(C(=O)C2=C(S(=O)(=O)Cc3ccccc3)CCCC2=O)c(C)c2c1S(=O)(=O)CCC2OC(C)C (stereo not shown) [B-71] | – | – | 0 | 1
Cc1ccccc1S(=O)(=O)C1=C(C(=O)c2ccc3c(c2Cl)CCS3(=O)=O)C(=O)CCC1 [B-32] | – | – | 0 | 0
O=C1CCCC(S(=O)(=O)Cc2ccccc2)=C1C(=O)c1ccc2c(c1Cl)CCS2(=O)=O [B-40] | – | – | 0 | 0
CSc1c(C(=O)C2=C(O)CCCC2=O)ccc2c1CCS2(=O)=O [A-6, 4-methylthio-5-(1,3-dioxocyclohexan-2-yl)carbonyl-2,3-dihydrobenzothiophene-1,1-dioxide] | 1 | 3 | – | –
CC1(C)CC(C)(C)C(=O)C(C(=O)c2ccc3c(c2Cl)CCS3(=O)=O)C1=O [A-15, 4-chloro-5-(4,4,6,6-tetramethyl-1,3-dioxocyclohexan-2-yl)carbonyl-2,3-dihydrobenzothiophene-1,1-dioxide] | 1 | 3 | – | –
O=C1CCCC(S(=O)(=O)c2ccccc2O)=C1C(=O)c1ccc2c(c1Cl)CCS2(=O)=O [B-49] | – | – | 0 | 0
CO/N=C1\CCS(=O)(=O)c2ccc(C(=O)C3=C(S(=O)(=O)c4ccccc4)CCCC3=O)c(C)c21 [B-75] | – | – | 0 | 1
Cc1c(C(=O)C2=C(Sc3ccc(Cl)cc3)CCCC2=O)ccc2c1C(=O)C(C)(C)CS2(=O)=O [B-64, 3,3,5-trimethyl-6-[3-(4-chloro)thio-1-oxocyclohexan-2-yl]carbonylthiochroman-4-one-1,1-dioxide] | – | – | 2 | 5
O=C1CCCC(Sc2ccccc2O)=C1C(=O)c1ccc2c(c1Cl)CCS2(=O)=O [B-48] | – | – | 0 | 0
COc1c(C(=O)C2=C(O)CCCC2=O)ccc2c1CC(C)S2(=O)=O (stereo not shown) [A-18, 4-methoxy-2-methyl-5-(1,3-dioxocyclohexan-2-yl)carbonyl-2,3-dihydrobenzothiophene-1,1-dioxide] | 0 | 1 | – | –
CC(=O)c1ccc(S(=O)(=O)C2=C(C(=O)c3ccc4c(c3Cl)CCS4(=O)=O)C(=O)CCC2)cc1 [B-46] | – | – | 0 | 0
O=C1CCCC(S(=O)(=O)c2ccccc2Cl)=C1C(=O)c1ccc2c(c1Cl)CCS2(=O)=O [B-35] | – | – | 0 | 0
O=C1CCCC(S(=O)(=O)c2ccc(Br)cc2)=C1C(=O)c1ccc2c(c1Cl)CCS2(=O)=O [B-42] | – | – | 0 | 0
CC1CC(=O)C(C(=O)c2ccc3c(c2Cl)CCS3(=O)=O)=C(Sc2ccccc2)C1 (stereo not shown) [B-26] | – | – | 0 | 0

Structure (SMILES) | Chemical injury, Transplanted paddy rice plant [1] | Chemical injury, Transplanted paddy rice plant [2] | Chemical injury, Transplanted paddy rice plant (dose 100 g/ha) | Chemical injury, Transplanted paddy rice plant (dose 200 g/ha)
CC(=O)c1ccc(SC2=C(C(=O)c3ccc4c(c3Cl)CCS4(=O)=O)C(=O)CCC2)cc1 [B-45, 4-chloro-5-[3-(4-acetylphenyl)thio-1-oxocyclohexan-2-yl]carbonyl-2,3-dihydrobenzothiophene-1,1-dioxide] | – | – | 0 | 0
CCSC1=C(C(=O)c2ccc3c(c2Cl)CCS3(=O)=O)C(=O)CCC1 [B-2] | – | – | 0 | 0
COCCOC1=C(C(=O)c2ccc3c(c2Cl)CCS3(=O)=O)C(=O)CCC1 [B-53] | – | – | 0 | 0
O=C1CCCC(O)=C1C(=O)c1cc2c(cc1[N+](=O)[O-])OCO2 [Comparative Example I-1, reference compound] | 3 | 4 | – | –
COc1c(C(=O)C2=C(O)CCCC2=O)ccc2c1CCS2(=O)=O [A-5, 4-methoxy-5-(1,3-dioxocyclohexan-2-yl)carbonyl-2,3-dihydrobenzothiophene-1,1-dioxide] | 0 | 0 | – | –
CN(C)C1=C(C(=O)c2ccc3c(c2Cl)CCS3(=O)=O)C(=O)CCC1 [B-13] | – | – | 0 | 0
O=C1CCCC(Sc2ccc(Br)cc2)=C1C(=O)c1ccc2c(c1Cl)CCS2(=O)=O [B-21] | – | – | 0 | 0
CC1CC(=O)C(C(=O)c2ccc3c(c2Cl)CCS3(=O)=O)=C(O)C1 (stereo not shown) [A-12, 4-chloro-5-(5-methyl-1,3-dioxocyclohexan-2-yl)carbonyl-2,3-dihydrobenzothiophene-1,1-dioxide] | 1 | 2 | – | –
COc1ccc(SC2=C(C(=O)c3ccc4c(c3Cl)CCS4(=O)=O)C(=O)CCC2)cc1 [B-20] | – | – | 0 | 0
CO/N=C1\CCS(=O)(=O)c2ccc(C(=O)C3=C(N(C)OC)CCCC3=O)c(C)c21 [B-76, 4-methoxyimino-5-methyl-6-[3-(N-methoxymethyl)amino-1-oxocyclohexan-2-yl]carbonylthiochroman-1,1-dioxide] | – | – | 0 | 1
CS(=O)(=O)C1=C(C(=O)c2ccc3c(c2Cl)CCS3(=O)=O)C(=O)CCC1 [B-24] | – | – | 0 | 0
CO/N=C1\CCS(=O)(=O)c2c(C)cc(C(=O)C3=C(Sc4ccc(C)cc4)CCCC3=O)c(C)c21 [B-59, 4-methoxyimino-5,8-dimethyl-6-[3-(4-methylphenyl)thio-1-oxocyclohexan-2-yl]carbonylthiochroman-1,1-1,1-dioxide] | – | – | 0 | 0
CSC1=C(C(=O)c2ccc3c(c2Cl)CCS3(=O)=O)C(=O)CCC1 [B-7] | – | – | 0 | 0
CC1CCC(O)=C(C(=O)c2ccc3c(c2Cl)CCS3(=O)=O)C1=O (stereo not shown) [A-7, 4-chloro-5-(4-methyl-1,3-dioxocyclohexan-2-yl)carbonyl-2,3-dihydrobenzothiophene-1,1-dioxide] | 1 | 2 | – | –
Cc1ccc(S(=O)(=O)C2=C(C(=O)c3ccc4c(c3Cl)CCS4(=O)=O)C(=O)CCC2)cc1 [B-34] | – | – | 0 | 0
CC1(C)CCC(O)=C(C(=O)c2ccc3c(c2Cl)CCS3(=O)=O)C1=O [A-8, 4-chloro-5-(4,4-dimethyl-1,3-dioxocyclohexan-2-yl)carbonyl-2,3-dihydrobenzothiophene-1,1-dioxide] | 1 | 3 | – | –
CON(C)C1=C(C(=O)c2ccc3c(c2Cl)CCS3(=O)=O)C(=O)CCC1 [B-12, 4-chloro-5-[3-(N-methoxymethyl)amino-1-oxocyclohexan-2-yl]carbonyl-2,3-dihydrobenzothiophene-1,1-dioxide] | – | – | 0 | 1
